Experimental data from patent US20240279231A1, “MAP4K4 INHIBITORS AND METHODS OF SYNTHESIS AND USE THEREOF” (The Board of Regents of the University of Oklahoma, priority 2021, published 2024).

How the values were obtained:
[1] = target: T1, recombinant MAP4K4 enzyme (Homo sapiens, UniProt O95819); experiment: MAP4K4 inhibition assay (cell free, MBP substrate, ADP detection); format: biochemical; settings: for IC50: recombinant MAP4K4, MBP substrate, 48 μM ATP, compounds titrated from 900 nM, read-out: concentration for 50% inhibition of MAP4K4 (IC50)
T1 construct: purchased BioAssay Systems Services (Hayward, CA)
T1 sequence (O95819 whole entry): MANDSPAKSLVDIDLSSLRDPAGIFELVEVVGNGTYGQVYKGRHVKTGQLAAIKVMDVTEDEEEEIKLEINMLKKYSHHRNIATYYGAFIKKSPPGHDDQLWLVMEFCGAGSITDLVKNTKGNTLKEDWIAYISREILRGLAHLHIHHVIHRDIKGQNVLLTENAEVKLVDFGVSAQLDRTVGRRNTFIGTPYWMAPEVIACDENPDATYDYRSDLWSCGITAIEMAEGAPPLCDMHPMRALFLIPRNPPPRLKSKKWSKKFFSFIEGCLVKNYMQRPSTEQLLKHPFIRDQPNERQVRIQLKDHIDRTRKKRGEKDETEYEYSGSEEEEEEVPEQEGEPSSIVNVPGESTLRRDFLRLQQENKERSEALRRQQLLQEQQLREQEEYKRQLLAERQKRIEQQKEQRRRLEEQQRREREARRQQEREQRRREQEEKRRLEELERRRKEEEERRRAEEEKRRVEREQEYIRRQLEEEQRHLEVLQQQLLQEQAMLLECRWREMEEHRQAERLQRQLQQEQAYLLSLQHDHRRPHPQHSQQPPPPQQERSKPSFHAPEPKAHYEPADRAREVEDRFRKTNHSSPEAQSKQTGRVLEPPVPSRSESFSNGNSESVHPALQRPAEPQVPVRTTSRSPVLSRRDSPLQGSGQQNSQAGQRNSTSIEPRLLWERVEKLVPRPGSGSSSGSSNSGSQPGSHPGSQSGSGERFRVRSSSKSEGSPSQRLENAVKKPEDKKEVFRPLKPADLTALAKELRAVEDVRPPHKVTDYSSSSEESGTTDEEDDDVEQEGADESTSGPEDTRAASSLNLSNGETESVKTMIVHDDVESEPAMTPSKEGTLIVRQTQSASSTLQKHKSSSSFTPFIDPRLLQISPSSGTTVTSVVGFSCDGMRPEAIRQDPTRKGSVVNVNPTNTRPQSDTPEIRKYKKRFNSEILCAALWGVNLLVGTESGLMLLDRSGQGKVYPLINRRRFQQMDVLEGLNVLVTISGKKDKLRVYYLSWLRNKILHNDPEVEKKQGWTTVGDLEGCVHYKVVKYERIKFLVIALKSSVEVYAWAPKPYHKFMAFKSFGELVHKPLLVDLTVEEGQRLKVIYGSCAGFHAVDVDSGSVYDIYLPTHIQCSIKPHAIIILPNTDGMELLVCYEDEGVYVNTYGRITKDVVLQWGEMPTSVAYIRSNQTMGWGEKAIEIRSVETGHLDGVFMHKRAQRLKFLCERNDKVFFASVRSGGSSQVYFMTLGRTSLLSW
Method: MAP4K4 inhibition assay: MAP4K4 assay for IC50 determination was performed using a kit by BioAssay Systems Services (Hayward, CA). Briefly, MAP4K4 in assay buffer (40 ng in 10 μL) was incubated with varying concentrations of test compounds (5 μL in dimethylsulfoxide) for 15 min at 37° C. The compounds were titrated from 900 nM (final reaction concentration) in 3× steps. Compound dilutions were made in assay buffer with 0.036% dimethylsulfoxide. Reactions were initiated by adding 5 μL reaction mix (2.6 μg/μL MBP, 193 μM ATP; final reaction concentration of 13 μg MBP, 48 μM ATP) and run at 37° C. for 20 min. These kinase reactions were stopped with an ADP detection reagent and fluorescence was measured at 530Ex/590Em. IC50 was computed using GraphPad Prism Nonlinear Sigmoidal Dose-Response fitting.
MAP4K4 inhibition assay: The MAP4K4 inhibitory activity of DMX-5804, Ribose-analog 9, and regio-isomer 7 were examined in a cell free assay using recombinant MAP4K4 enzyme and myelin basic protein (MBP) as its substrate.

[2] = Stability on reflux in dioxane-HCl; format: physicochemical; settings: refluxed in dioxane-HCl for 6 h
Method: (§1) First, we attempted base-catalyzed O-alkylation in a variety of conditions (Table 1). […] We also screened various solvents combined with different bases to get DMX-5804. […] However, DMX-5804 was obtained only in small amounts (5-7%), whereas compound 7 was isolated as the major product (88%). To check the stability of compound 7, we refluxed it in dioxane-HCl for 6 h. […] Also, its HPLC retention time was identical to that of DMX-5804 (data not shown).

[3] = Solubility in polar solvents; format: physicochemical; settings: compared with DMX-5804
Method: as §1

[4] = compared with F1386-0303; cited from earlier work
[5] = mouse infarct model; cited from earlier work
cardiomyocyte = settings: oxidative stress-induced, in vitro and in vivo; cited from earlier work
[6] = Solubility in aqueous medium; format: physicochemical
From the text: In order to shift alkylation to desired phenolic site, we changed reaction conditions to acidic by using boron trifluoride diethyl etherate as a Lewis acid (entries 9-11 of Table 1). […] Hypothesizing that the relatively low separated yields of this reaction are due to the insolubility of phenolic derivative in dichloromethane, we decided to perform this reaction in neat conditions with BF3OEt2. This modification produced satisfactory yields of DMX-5804 (entry 10). Further, we added excess of methylglycol as a solvent as well as a reactant in presence of BF3OEt2 to obtain quantitative yields of DMX-5804 in good time (entry 11). In these acidic conditions, the other regioisomer (pyrimidine alkylated compound 7) was completely absent. Previously, the use of BF3OEt2 for phenolic alkylation has been reported. In addition to the compound DMX-5804, we employed this route for synthesis of ribose- and glucose-conjugated analogs. […]

IC50 [1] [nM] | melting point [°C] | stability in acidic conditions [2] | solubility in polar solvents [3] | solubility in aqueous medium [6] | SMILES | MAP4K4 inhibitory activity ([1]; concentration range tested (titrated from 900 nM in 3× steps)) | bioavailability in vivo [4] | infarct size [5] | cardiomyocyte death (cardiomyocyte)
256 |  |  |  |  | O=c1[nH]cnc2c1c(-c1ccc(OC3OC(CO)C(O)C3O)cc1)cn2-c1ccccc1 (stereo not shown) [Compound 9, 5-(4-((3,4-dihydroxy-5-(hydroxymethyl)tetrahydrofuran-2-yl)oxy)phenyl)-7-phenyl-3,7-dihydro-4H-pyrrolo[2,3-d]pyrimidin-4-one] |  |  |  | 
 | 221 to 224 | stable in acidic conditions | significantly better than DMX-5804 |  | COCCOc1ncnc2c1c(-c1ccc(O)cc1)cn2-c1ccccc1 (single isomer, unassigned) [Compound 7, 4-(4-(2-methoxyethoxy)-7-phenyl-7H-pyrrolo[2,3-d]pyrimidin-5-yl)phenol] | no inhibitory activity in the concentration range tested |  |  | 
206 |  |  |  | virtually insoluble | COCCOc1ccc(-c2cn(-c3ccccc3)c3nc[nH]c(=O)c23)cc1 [DMX-5804, 5-(4-(2-methoxyethoxy)phenyl)-7-phenyl-3,7-dihydro-4H-pyrrolo[2,3-d]pyrimidin-4-one] |  | better bioavailability in vivo than F1386-0303 | significant reduction of infarct size | reduces cardiomyocyte death both in vitro and in vivo
